Assay results from US20240300932A1, “N-PHENYLIMINE DERIVATIVE AND PREPARATION METHOD AND USE THEREOF” (Guizhou University, priority 2023, published 2024).

What was measured:
Assay in all cases: Post-emergence herbicidal activity test (stem and leaf spray, pot culture)
Format in all cases: in vivo
Settings in all cases: 3 weeks after spraying
Trifoliumre pensL. = test system: Trifoliumre pensL.
How it was run: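 Pot-grown weeds in loam (pH 7), greenhouse at 20–30 °C, sprayed once post-emergence at the 2–3-leaf stage. Compound in acetone with Tween 80 plus methyl oleate oil (1.5 L/ha), applied at 10, 5 and 2.5 g/mu by spray tower. Effect scored 3 weeks after spraying, averaged over three repeats.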

Portulaca oleracea = test system: Portulaca oleracea
How it was run: (§1)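 Read-out: fresh weight control rate 3 weeks post-spray, graded 5 (≥85%) down to 0 (<5%). Foliar spray at 2–3-leaf stage; rates 10, 5, 2.5 g/mu; acetone + Tween 80 formulation with methyl oleate synergist; greenhouse 20–30 °C, natural light.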

Echinochloa crusgalli = test system: Echinochloa crusgalli
How it was run: as §1

Amaranthus retroflexus = test system: Amaranthus retroflexus
How it was run: as §1

Setaria viridis = test system: Setaria viridis
How it was run: as §1

Abutilon theophrasti = test system: Abutilon theophrasti
How it was run: as §1

SMILES | Post-emergence herbicidal activity, Trifoliumre pensL. (grade) (Trifoliumre pensL.; dosage 2.5 g/mu) | Post-emergence herbicidal activity, Trifoliumre pensL. (grade) (Trifoliumre pensL.; dosage 5 g/mu) | Post-emergence herbicidal activity, Trifoliumre pensL. (grade) (Trifoliumre pensL.; dosage 10 g/mu) | Post-emergence herbicidal activity, P. oleracea (grade) (Portulaca oleracea; dosage 2.5 g/mu) | Post-emergence herbicidal activity, P. oleracea (grade) (Portulaca oleracea; dosage 5 g/mu) | Post-emergence herbicidal activity, P. oleracea (grade) (Portulaca oleracea; dosage 10 g/mu) | Post-emergence herbicidal activity, E. crusgalli (grade) (Echinochloa crusgalli; dosage 2.5 g/mu) | Post-emergence herbicidal activity, E. crusgalli (grade) (Echinochloa crusgalli; dosage 5 g/mu) | Post-emergence herbicidal activity, E. crusgalli (grade) (Echinochloa crusgalli; dosage 10 g/mu) | Post-emergence herbicidal activity, A. retroflexus (grade) (Amaranthus retroflexus; dosage 2.5 g/mu) | Post-emergence herbicidal activity, A. retroflexus (grade) (Amaranthus retroflexus; dosage 5 g/mu) | Post-emergence herbicidal activity, A. retroflexus (grade) (Amaranthus retroflexus; dosage 10 g/mu) | Post-emergence herbicidal activity, S. viridis (grade) (Setaria viridis; dosage 2.5 g/mu) | Post-emergence herbicidal activity, S. viridis (grade) (Setaria viridis; dosage 5 g/mu) | Post-emergence herbicidal activity, S. viridis (grade) (Setaria viridis; dosage 10 g/mu) | Post-emergence herbicidal activity, A. theophrasti (grade) (Abutilon theophrasti; dosage 2.5 g/mu) | Post-emergence herbicidal activity, A. theophrasti (grade) (Abutilon theophrasti; dosage 5 g/mu) | Post-emergence herbicidal activity, A. theophrasti (grade) (Abutilon theophrasti; dosage 10 g/mu)
O=C1C2=C(CCCC2)C(=O)N1c1cc(OCc2nnc(-c3ccccc3Cl)o2)c(Cl)cc1F [Compound B5] | 5 (Grade 5: the growth control rate is greater than or equal to 85%) | 5 (Grade 5: the growth control rate is greater than or equal to 85%) | 5 (Grade 5: the growth control rate is greater than or equal to 85%) | 5 (Grade 5: the growth control rate is greater than or equal to 85%) | 5 (Grade 5: the growth control rate is greater than or equal to 85%) | 5 (Grade 5: the growth control rate is greater than or equal to 85%) | 1 (Grade 1: the growth control rate is greater than or equal to 5% and less than 20%) | 2 (Grade 2: the growth control rate is greater than or equal to 20% and less than 40%) | 3 (Grade 3: the growth control rate is greater than or equal to 40% and less than 60%) | 5 (Grade 5: the growth control rate is greater than or equal to 85%) | 5 (Grade 5: the growth control rate is greater than or equal to 85%) | 5 (Grade 5: the growth control rate is greater than or equal to 85%) | 2 (Grade 2: the growth control rate is greater than or equal to 20% and less than 40%) | 3 (Grade 3: the growth control rate is greater than or equal to 40% and less than 60%) | 4 (Grade 4: the growth control rate is greater than or equal to 60% and less than 85%) | 5 (Grade 5: the growth control rate is greater than or equal to 85%) | 5 (Grade 5: the growth control rate is greater than or equal to 85%) | 5 (Grade 5: the growth control rate is greater than or equal to 85%)
O=C1C2=C(CCCC2)C(=O)N1c1cc(OCc2nc(-c3ccccc3Cl)no2)c(Cl)cc1F [Compound A8] | 4 (Grade 4: the growth control rate is greater than or equal to 60% and less than 85%) | 5 (Grade 5: the growth control rate is greater than or equal to 85%) | 5 (Grade 5: the growth control rate is greater than or equal to 85%) | 4 (Grade 4: the growth control rate is greater than or equal to 60% and less than 85%) | 5 (Grade 5: the growth control rate is greater than or equal to 85%) | 5 (Grade 5: the growth control rate is greater than or equal to 85%) | 1 (Grade 1: the growth control rate is greater than or equal to 5% and less than 20%) | 2 (Grade 2: the growth control rate is greater than or equal to 20% and less than 40%) | 3 (Grade 3: the growth control rate is greater than or equal to 40% and less than 60%) | 5 (Grade 5: the growth control rate is greater than or equal to 85%) | 5 (Grade 5: the growth control rate is greater than or equal to 85%) | 5 (Grade 5: the growth control rate is greater than or equal to 85%) | 2 (Grade 2: the growth control rate is greater than or equal to 20% and less than 40%) | 3 (Grade 3: the growth control rate is greater than or equal to 40% and less than 60%) | 4 (Grade 4: the growth control rate is greater than or equal to 60% and less than 85%) | 5 (Grade 5: the growth control rate is greater than or equal to 85%) | 5 (Grade 5: the growth control rate is greater than or equal to 85%) | 5 (Grade 5: the growth control rate is greater than or equal to 85%)
O=C1C2=C(CCCC2)C(=O)N1c1cc(OCc2nc(-c3ccco3)no2)c(Cl)cc1F [Compound A22] | 4 (Grade 4: the growth control rate is greater than or equal to 60% and less than 85%) | 5 (Grade 5: the growth control rate is greater than or equal to 85%) | 5 (Grade 5: the growth control rate is greater than or equal to 85%) | 4 (Grade 4: the growth control rate is greater than or equal to 60% and less than 85%) | 5 (Grade 5: the growth control rate is greater than or equal to 85%) | 5 (Grade 5: the growth control rate is greater than or equal to 85%) | 1 (Grade 1: the growth control rate is greater than or equal to 5% and less than 20%) | 2 (Grade 2: the growth control rate is greater than or equal to 20% and less than 40%) | 3 (Grade 3: the growth control rate is greater than or equal to 40% and less than 60%) | 5 (Grade 5: the growth control rate is greater than or equal to 85%) | 5 (Grade 5: the growth control rate is greater than or equal to 85%) | 5 (Grade 5: the growth control rate is greater than or equal to 85%) | 2 (Grade 2: the growth control rate is greater than or equal to 20% and less than 40%) | 3 (Grade 3: the growth control rate is greater than or equal to 40% and less than 60%) | 4 (Grade 4: the growth control rate is greater than or equal to 60% and less than 85%) | 5 (Grade 5: the growth control rate is greater than or equal to 85%) | 5 (Grade 5: the growth control rate is greater than or equal to 85%) | 5 (Grade 5: the growth control rate is greater than or equal to 85%)
O=C1C2=C(CCCC2)C(=O)N1c1ccc(Cl)c(OCc2nc(-c3cc(F)cc(Br)c3)no2)c1F [Compound A13, 2-(3-(3-(3-(3-bromo-5-fluorophenyl)-1,2,4-oxadiazole-5-yl)methoxy)-4-chloro-2-fluorophenyl)-4,5,6,7-tetrahydro-1H-isoindole-1,3(2H)-dione] | 4 (Grade 4: the growth control rate is greater than or equal to 60% and less than 85%) | 5 (Grade 5: the growth control rate is greater than or equal to 85%) | 5 (Grade 5: the growth control rate is greater than or equal to 85%) | 4 (Grade 4: the growth control rate is greater than or equal to 60% and less than 85%) | 5 (Grade 5: the growth control rate is greater than or equal to 85%) | 5 (Grade 5: the growth control rate is greater than or equal to 85%) | 1 (Grade 1: the growth control rate is greater than or equal to 5% and less than 20%) | 2 (Grade 2: the growth control rate is greater than or equal to 20% and less than 40%) | 3 (Grade 3: the growth control rate is greater than or equal to 40% and less than 60%) | 5 (Grade 5: the growth control rate is greater than or equal to 85%) | 5 (Grade 5: the growth control rate is greater than or equal to 85%) | 5 (Grade 5: the growth control rate is greater than or equal to 85%) | 2 (Grade 2: the growth control rate is greater than or equal to 20% and less than 40%) | 3 (Grade 3: the growth control rate is greater than or equal to 40% and less than 60%) | 4 (Grade 4: the growth control rate is greater than or equal to 60% and less than 85%) | 5 (Grade 5: the growth control rate is greater than or equal to 85%) | 5 (Grade 5: the growth control rate is greater than or equal to 85%) | 5 (Grade 5: the growth control rate is greater than or equal to 85%)
